Series [1] deals with HIV-1 Env pseudoviruses. As to conditions: despite low nanomolar potency; cited from earlier work.
The test system of series [2] is Caco-2 cell monolayer. The following applies: no inhibitor; cited from earlier work.
The conditions of series [3]: phosphate buffer, pH7.4; cited from earlier work.
The nature of series [4]: Cytotoxicity in TZM-bl cells. As to conditions: human. It is filed as cell-based.
The test system of series [5] is U87-CD4-CXCR4 cells. The series can be described thus: Cytotoxicity in U87-CD4-CXCR4 cells. As to conditions: at the doses used for this assay. It is filed as cell-based.
The subject of series [6] is CYP3A. The series can be described thus: Cytochrome P450 inhibition CYP3A. It is filed as in vitro ADME. As to conditions: human.
The subject of series [7] is Cf2Th-CCR5 cells. The series can be described thus: Cytotoxicity in Cf2Th-CCR5 cells. It is filed as cell-based.
A short description of series [8]: Metabolic stability in human liver microsomes. It is filed as in vitro ADME.
Series [9] relates to VSV-G pseudovirus. It is filed as cell-based. The following applies: control for HIV-1 specificity.
Series [10] deals with CYP450 enzymes. Put plainly: Cytochrome P450 inhibition, set of CYP450 enzymes. It is filed as in vitro ADME.

`COc1ccnc2[nH]cc(C(=O)C(=O)N3CCN(C(=O)c4ccccc4)C[C@H]3C)c12` [BMS-378806, 4-benzoyl-1-[(4-methoxy-1H-pyrrolo-[2,3-b]pyridin-3-yl)oxoacetyl]-2-(R)-methylpiperazine]: in [1], the “activity against A, C, and D subtypes” value is “weaker activity”.

For orientation: solubility means the dissolved amount per volume that the medium holds. Take `COc1cnc(-n2cnc(C)n2)c2[nH]cc(C(=O)C(=O)N3CCN(C(=O)c4ccccc4)CC3)c12` [BMS-626529]: in series [2], the “Caco-2 permeability mean Papp A-to-B” value was 9.27 ×10⁻⁶ cm/s and the “Caco-2 permeability mean Papp B-to-A” value was 32 ×10⁻⁶ cm/s. The solubility in series [3] was 47 to 237 µg/mL.

Broadly, the CC50 is the concentration at which the toxic effect on the cells reaches its halfway point. A higher CC50 goes with better tolerance by the cells. `NC[C@H](NC(=O)c1ccc(-c2ccc(C(F)(F)F)cn2)[nH]1)c1ncc(CO)s1` [Compound 6, N-(2-Amino-1-(5-(hydroxymethyl)thiazol-2-yl)ethyl)-5-(5-(trifluoromethyl)pyridin-2-yl)-1H-pyrrole-2-carboxamide] came in with a CC50 at 3 d in series [4] greater than 122 µM.

In general, IC50 refers to the midpoint of a concentration-inhibition curve. Higher therefore signals lower potency. A word on the microsomal CLint: it is the capacity of the preparation to metabolise the compound, expressed as a volume cleared per time. Low values mean slow turnover, high ones rapid turnover. For `Cc1cc(-c2ccc(C(F)(F)F)cn2)[nH]c1C(=O)N[C@@H](CN)c1ncc(CO)s1` [Compound 8, N-(2-Amino-1-(5-(hydroxymethyl)thiazol-2-yl)ethyl)-3-methyl-5-(5-(trifluoromethyl)pyridin-2-yl)-1H-pyrrole-2-carboxamide], in series [5], the “toxicity in the U87-CD4-CXCR4 cell line” value is recorded as “did not induce toxicity”. The results for the IC50 in [6] (probe midazolam) and in series [6] (probe testosterone) were greater than 100 µM and greater than 62.2 µM, respectively. Besides, the “toxicity at the doses used in this assay” value in series [7] was “did not show toxicity”. Moreover, the microsomal CLint in series [8] is less than 11.6 µL/min/mg. Moreover, the “activity against the pseudovirus VSV-G” value in series [9] is reported as “poorly active”. For the same compound, the “inhibition of CYP1A2, CYP2B6, and CYP3A” value in series [10] (at greater than 50 μM dose levels) was “no inhibition”. For the same compound, the “inhibition of the other CYP450 enzymes” value in series [10] (at the 100 μM dose level) is “No inhibitory activities”.

The compound `NC[C@@H](NC(=O)c1ccc(-c2ccc(C(F)(F)F)cn2)[nH]1)c1ncc(C(O)CO)s1` (stereo partly shown) [Compound 13, N-(2-Amino-1-(5-(1,2-dihydroxyethyl)thiazol-2-yl)ethyl)-5-(5-(trifluoromethyl)pyridin-2-yl)-1H-pyrrole-2-carboxamide] showed a half-maximal cytotoxic concentration (CC50) at 3 d in series [4] greater than 113 µM.

In [4], `NC[C@H](NC(=O)c1ccc(-c2ccc(Cl)cn2)[nH]1)c1nc(CO)cs1` [Compound 16, N-(2-Amino-1-(4-(hydroxymethyl)thiazol-2-yl)ethyl)-5-(5-chloropyridin-2-yl)-1H-pyrrole-2-carboxamide] came in with a CC50 at 3 d greater than 132 µM.

Take `NC[C@@H](NC(=O)c1ccc(-c2ccc(F)cn2)[nH]1)c1nc(CO)cs1` [Compound 17, N-(2-Amino-1-(4-(hydroxymethyl)thiazol-2-yl)ethyl)-5-(5-fluoropyridin-2-yl)-1H-pyrrole-2-carboxamide]: the CC50 at 3 d in [4] is greater than 138 µM.

`Cc1ccc(-c2ccc(C(=O)N[C@H](CN)c3nc(CO)cs3)[nH]2)nc1` [Compound 19, N-(2-Amino-1-(4-(hydroxymethyl)thiazol-2-yl)ethyl)-5-(5-methylpyridin-2-yl)-1H-pyrrole-2-carboxamide]: the CC50 at 3 d in [4] was greater than 140 µM.

As for `NC[C@@H](NC(=O)c1ccc(-c2ccc(C(F)(F)F)cn2)[nH]1)c1nc(C(O)CO)cs1` (stereo partly shown) [Compound 29, N-(2-Amino-1-(4-(1,2-dihydroxyethyl)thiazol-2-yl)ethyl)-5-(5-(trifluoromethyl)pyridin-2-yl)-1H-pyrrole-2-carboxamide], the CC50 at 3 d in series [4] was greater than 113 µM.

As for `Cc1cc(-c2ccc(C(F)(F)F)cn2)[nH]c1C(=O)N[C@H](CN)c1nc(CO)cs1` [Compound 33, N-(2-Amino-1-(4-(hydroxymethyl)thiazol-2-yl)ethyl)-3-methyl-5-(5-(trifluoromethyl)pyridin-2-yl)-1H-pyrrole-2-carboxamide], the “toxicity in the U87-CD4-CXCR4 cell line” value in [5] is reported as “did not induce toxicity”. For the same compound, the “toxicity at the doses used in this assay” value in [7] was “did not show toxicity”. Also, in [4], the CC50 at 72 h was determined as 85 ± 3 µM. For the same compound, the “activity against the pseudovirus VSV-G” value in [9] was “poorly active”.

With `NC[C@H](NC(=O)c1ccc(-c2ccc(C(F)(F)F)cn2)[nH]1)c1nc(CO)c(CO)s1` [Compound 36, N-(2-Amino-1-(4,5-bis(hydroxymethyl)thiazol-2-yl)ethyl)-5-(5-(trifluoromethyl)pyridin-2-yl)-1H-pyrrole-2-carboxamide], the CC50 at 3 d in series [4] was greater than 113 µM.

As to `NC[C@@H](NC(=O)c1ccc(-c2ccc(Cl)nc2)[nH]1)c1nc(CO)cs1` [Compound 39, N-(2-Amino-1-(4-(hydroxymethyl)thiazol-2-yl)ethyl)-5-(6-chloropyridin-3-yl)-1H-pyrrole-2-carboxamide], the CC50 at 3 d in series [4] was greater than 132 µM.

Take `NC[C@@H](NC(=O)c1ccc(-c2ccc(C(F)(F)F)nc2)[nH]1)c1nc(CO)cs1` [Compound 41, N-(2-Amino-1-(4-(hydroxymethyl)thiazol-2-yl)ethyl)-5-(6-(trifluoromethyl)pyridin-3-yl)-1H-pyrrole-2-carboxamide]: the CC50 at 3 d in series [4] was greater than 122 µM.

Regarding `NC[C@H](NC(=O)c1ccc(-c2ccc(C(F)(F)F)nn2)[nH]1)c1nc(CO)cs1` [Compound 44, N-(2-Amino-1-(4-(hydroxymethyl)thiazol-2-yl)ethyl)-5-(6-(trifluoromethyl)pyridazin-3-yl)-1H-pyrrole-2-carboxamide], the CC50 at 3 d in series [4] is greater than 73 µM.

`NC[C@@H](NC(=O)c1ccc(-c2ncc(Cl)cn2)[nH]1)c1nc(CO)cs1` [Compound 45, N-(2-Amino-1-(4-(hydroxymethyl)thiazol-2-yl)ethyl)-5-(5-chloropyrimidin-2-yl)-1H-pyrrole-2-carboxamide] returned a CC50 at 3 d in series [4] greater than 66 µM.

Turning to `COc1cc(-c2ccc(C(=O)N[C@H](CN)c3nc(CO)cs3)[nH]2)ccn1` [Compound 47, N-(2-Amino-1-(4-(hydroxymethyl)thiazol-2-yl)ethyl)-5-(2-methoxypyridin-4-yl)-1H-pyrrole-2-carboxamide], in [4], the CC50 at 3 d is greater than 133 µM.

These data come from publication PMC7703574 (Journal of medicinal chemistry, 2020).
